Active and inactive are the calls of the source. Some results are limits rather than exact numbers.

Here are results for three compounds from ChEMBL document CHEMBL1201862, “PubChem BioAssay data set” (2004).

The target of assay [1] is T1, Apoptotic protease-activating factor 1 (Homo sapiens, UniProt O14727).
T1 sequence (O14727 whole entry): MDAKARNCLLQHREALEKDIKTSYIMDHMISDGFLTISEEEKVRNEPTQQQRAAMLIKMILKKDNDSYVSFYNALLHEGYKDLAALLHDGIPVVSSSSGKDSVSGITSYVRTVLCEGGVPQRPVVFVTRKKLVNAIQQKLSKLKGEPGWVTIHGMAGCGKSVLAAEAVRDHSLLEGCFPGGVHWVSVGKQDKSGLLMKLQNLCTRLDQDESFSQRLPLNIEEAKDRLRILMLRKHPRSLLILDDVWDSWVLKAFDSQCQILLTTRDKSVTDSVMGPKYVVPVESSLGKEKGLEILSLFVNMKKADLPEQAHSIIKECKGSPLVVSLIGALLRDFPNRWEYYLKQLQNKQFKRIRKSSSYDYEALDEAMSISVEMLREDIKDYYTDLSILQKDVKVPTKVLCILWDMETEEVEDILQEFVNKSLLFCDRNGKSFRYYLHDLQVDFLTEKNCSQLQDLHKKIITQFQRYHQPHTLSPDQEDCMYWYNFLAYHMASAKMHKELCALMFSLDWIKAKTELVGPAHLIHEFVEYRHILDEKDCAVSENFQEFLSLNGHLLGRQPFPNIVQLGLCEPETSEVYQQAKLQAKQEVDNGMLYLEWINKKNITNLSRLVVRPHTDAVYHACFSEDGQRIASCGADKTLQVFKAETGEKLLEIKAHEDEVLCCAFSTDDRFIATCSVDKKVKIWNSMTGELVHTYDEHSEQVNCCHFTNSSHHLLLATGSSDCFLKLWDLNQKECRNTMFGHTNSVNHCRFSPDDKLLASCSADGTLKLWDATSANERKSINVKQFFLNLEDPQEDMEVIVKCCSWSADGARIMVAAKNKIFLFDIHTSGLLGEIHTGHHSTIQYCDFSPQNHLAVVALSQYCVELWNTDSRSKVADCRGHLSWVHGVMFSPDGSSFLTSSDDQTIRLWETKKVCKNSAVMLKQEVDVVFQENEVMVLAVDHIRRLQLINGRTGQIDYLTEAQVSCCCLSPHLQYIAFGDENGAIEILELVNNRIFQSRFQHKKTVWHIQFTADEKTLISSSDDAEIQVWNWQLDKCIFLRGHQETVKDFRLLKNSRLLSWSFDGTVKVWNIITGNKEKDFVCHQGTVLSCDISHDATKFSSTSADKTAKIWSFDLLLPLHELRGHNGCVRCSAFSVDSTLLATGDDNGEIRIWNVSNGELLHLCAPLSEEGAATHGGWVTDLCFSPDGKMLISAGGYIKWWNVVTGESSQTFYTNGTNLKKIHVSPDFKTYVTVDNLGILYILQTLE
It is filed as functional.

Assay [2] deals with T2, Histone-lysine N-methyltransferase NSD2 (Homo sapiens, UniProt O96028).
T2 sequence (O96028 whole entry): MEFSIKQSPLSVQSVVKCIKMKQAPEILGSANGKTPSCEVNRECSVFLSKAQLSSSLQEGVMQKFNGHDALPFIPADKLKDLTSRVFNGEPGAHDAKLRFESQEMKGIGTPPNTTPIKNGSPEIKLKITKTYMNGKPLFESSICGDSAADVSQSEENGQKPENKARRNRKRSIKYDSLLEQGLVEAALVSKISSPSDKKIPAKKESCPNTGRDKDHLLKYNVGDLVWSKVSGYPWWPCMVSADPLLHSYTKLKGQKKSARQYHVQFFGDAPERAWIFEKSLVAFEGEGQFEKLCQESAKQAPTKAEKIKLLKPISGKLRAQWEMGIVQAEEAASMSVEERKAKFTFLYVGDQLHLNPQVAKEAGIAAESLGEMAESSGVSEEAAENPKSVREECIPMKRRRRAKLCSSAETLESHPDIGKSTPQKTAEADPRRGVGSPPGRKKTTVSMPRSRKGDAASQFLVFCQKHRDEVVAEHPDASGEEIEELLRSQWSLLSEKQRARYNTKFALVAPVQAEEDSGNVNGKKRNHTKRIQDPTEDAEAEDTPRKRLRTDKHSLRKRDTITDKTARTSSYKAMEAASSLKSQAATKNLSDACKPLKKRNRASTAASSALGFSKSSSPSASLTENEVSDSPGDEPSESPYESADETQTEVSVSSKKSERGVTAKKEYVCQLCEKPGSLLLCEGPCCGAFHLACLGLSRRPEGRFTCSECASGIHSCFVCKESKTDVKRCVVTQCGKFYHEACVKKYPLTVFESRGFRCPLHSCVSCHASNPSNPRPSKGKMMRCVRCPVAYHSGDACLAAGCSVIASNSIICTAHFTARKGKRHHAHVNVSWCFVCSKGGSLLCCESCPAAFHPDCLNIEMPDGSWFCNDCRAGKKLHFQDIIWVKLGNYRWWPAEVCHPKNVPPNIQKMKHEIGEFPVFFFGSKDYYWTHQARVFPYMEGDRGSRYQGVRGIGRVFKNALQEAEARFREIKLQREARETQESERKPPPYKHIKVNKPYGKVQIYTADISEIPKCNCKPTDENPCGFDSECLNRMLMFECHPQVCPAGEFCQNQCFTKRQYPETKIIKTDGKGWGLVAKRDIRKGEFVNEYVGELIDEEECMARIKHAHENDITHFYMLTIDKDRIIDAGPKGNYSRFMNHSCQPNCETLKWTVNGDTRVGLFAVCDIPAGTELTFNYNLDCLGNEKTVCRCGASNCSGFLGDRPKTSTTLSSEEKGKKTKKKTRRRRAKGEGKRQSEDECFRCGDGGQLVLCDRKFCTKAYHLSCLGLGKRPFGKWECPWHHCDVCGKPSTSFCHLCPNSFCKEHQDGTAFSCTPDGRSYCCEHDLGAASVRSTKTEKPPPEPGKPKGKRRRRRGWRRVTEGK
It is filed as biochemical.

By IC50 is commonly meant the concentration at which inhibition is half-maximal. What is called AC50 is the concentration at which the activity in the assay is half-maximal. Regarding `O=C1/C(=N\c2cccc(O)c2)C(N2CCCCC2)=C(O)c2ccccc21`, in assay [1], the IC50 was 4.03 µM (active). The AC50 in assay [2] was 8.12 µM (active).
In the case of `COC(=O)c1cccc(-c2ccc(C(c3c(C)n[nH]c3O)c3c(C)n[nH]c3O)o2)c1`, in assay [2], the AC50 is > 20 µM (inactive).
`Cc1ccc(C(=O)NNc2cc(N3CCCC3)nc(N3CCCC3)n2)cc1`: the IC50 in assay [1] was 5.08 µM (active).
